In brackets after ≈: the same amount, converted by molar mass. Several values for one entry are separate records, joined by “and”; a condition that tells them apart may be missing. Identical values can stand only once.
What was measured:
[1] = system: S. aureus transmembrane potential; experiment: Dissipation of bacterial membrane potential, DiSC3(5) fluorescence; type: cell-based, Staphylococcus aureus; conditions: 30 μM
Protocol: Transmembrane potential was determined as described by Breeuwer and Abee[23] Staphylococcal cells were resuspended in potassium phosphate buffer (50 mM, pH 7) containing 5 μM of the cationic fluorescent dye DiSC3(5) (Invitrogen) and fluorescence determined (excitation 650 nm, emission 680 nm).

[2] = system: staphylococcal membrane; parameters: method as in PMID 24592914; conditions: binding to the staphylococcal membrane, single site model; cited from earlier work
[3] = system: agr quorum sensing system; parameters: method as in PMID 24592914; conditions: S. aureus; cited from earlier work
[4] = system: S. aureus strain SH1000; experiment: MIC by broth microdilution (CLSI), strain SH1000; type: cell-based; conditions: Staphylococcus aureus; SH1000 (MSSA), Mueller–Hinton broth
Protocol: (§1) Community-acquired MRSA (CA-MRSA) strain USA300, its isogenic agr mutant,[17] the hospital-acquired MRSA (HA-MRSA) strain BH1CC,[18] the HA-MSSA strain BH48[19] and the MSSA strain SH1000[20] were cultured in Mueller–Hinton broth for susceptibility testing or in RPMI-1640 (Gibco) for biofilm formation. For the rat jugular vein catheter infection model, the S. aureus strain USA300 (LAC) lux[21] was used.
(§2) 5HE-C14-TMA and C14-TOA were synthesized as described previously[9] and C14-TTA as described in the Supplementary data available at JAC Online. Stock solutions of the compounds in DMSO at 10–50 mM were further diluted into tissue culture media or sodium chloride for the in vivo experiments. A DMSO solvent control was used in all in vitro experiments. The following antibiotics were used: vancomycin (Vancocin; Flynn Pharma Ltd., Republic of Ireland), daptomycin (Cubicin; Novartis, UK), gentamicin (Hospira, UK) and tigecycline (Tygacil; Pfizer Inc.). MICs were determined by broth microdilution in Mueller–Hinton broth, as recommended by the CLSI.

[5] = system: S. aureus USA300 LAC; experiment: Bactericidal activity (time-kill, viable counts); type: cell-based, Staphylococcus aureus; conditions: 8 × MIC
Protocol: S. aureus USA300 LAC was grown overnight in LB medium, diluted 250-fold and grown to an OD600 0.5. Cells were diluted to 1 × 10^6 per mL in challenge medium (LB plus 5HE-C14-TMA, C14-TOA or C14-TTA at 8 × MIC). Samples were removed and viable counts determined at 30 min intervals for the first hour followed by hourly sampling. The CLSI defines a compound as bactericidal if it reduces the starting inoculum colony count by at least 99.9% (3-logs).

[6] = system: S. aureus USA300 and SH1000 biofilms; experiment: Biofilm viability by live/dead imaging; type: cell-based, Staphylococcus aureus; conditions: 128 mg/L, 24 h, both strains (USA300 MRSA and SH1000 MSSA), live/dead staining
Protocol: Biofilms were formed as previously described to mimic in vivo conditions that promote formation of coagulase-mediated biofilms.[16] Briefly, microtitre plates or glass-bottom culture dishes (MaTek Co., USA) were coated with either 20% (v/v) or 100% (v/v) human plasma, respectively, and inoculated with S. aureus at an OD600 ∼0.2. After 1 h, non-adherent bacteria were aspirated, replaced with fresh RPMI-1640 and biofilms allowed to form over 24 h at 37 °C. Pre-formed biofilms were treated for 24 h with either 5HE-C14-TMA, C14-TOA or C14-TTA or a positive control [ethanol at 40% (v/v)]. Biofilm viability was measured by (i) resazurin-conversion assay (in microtitre wells), or (ii) live/dead imaging (glass-bottom dishes). Conversion of the non-fluorescent redox dye, resazurin into the fluorescent resorufin was performed as described previously.[16] A 44 μM resazurin (Sigma-Aldrich, UK) solution in RPMI-1640 was added to an equal biofilm volume and incubated for 1 h at 37 °C. Fluorescence (excitation 544 nm, emission 590 nm) was quantified using a Perkin Elmer 2030 Multilabel Reader Victor^TM X3. Biofilms were stained with SYTO9 Green (at 13.36 μM) and propidium iodide (at 80 μM) (Molecular Probes®) for 1 h prior to washing. […] Fluorescence intensity was quantified using Image J1 software (http://imagej.net/Welcome).

[7] = Iron chelation; type: physicochemical; conditions: data not shown
[8] = Haemolysis assay; type: cell-based; conditions: red blood cells; human RBC; read-out: CC50 (haemolytic activity)
Protocol: Human blood containing EDTA (1.6 g/L) was centrifuged at 1000 g for 5 min. Red blood cells (RBC) were washed twice with PBS, diluted 2-fold and incubated with compounds or Triton X100 (positive control) at 0.5% (v/v). A570 was determined to quantify haemolysis. IC50s were derived from the corresponding dose–response curves.

[9] = system: S. aureus strain BH1CC; experiment: MIC by broth microdilution (CLSI), strain BH1CC; type: cell-based; conditions: Staphylococcus aureus; BH1CC (MRSA), Mueller–Hinton broth
Protocol: as §1, §2

[10] = system: MRSA (USA300 JE2 and BH1CC) and MSSA (SH1000 and BH48) strains; experiment: MIC by broth microdilution, MRSA and MSSA strains; type: cell-based, Staphylococcus aureus; conditions: MRSA and MSSA strains investigated
Protocol: as §1, §2

[11] = system: IL-8 and TNF-α release in human blood; type: cell-based
Protocol: EDTA-treated human blood was incubated in microtitre wells containing either S. aureus USA300 biofilm, 5HE-C14-TMA (at 256 mg/L) only or biofilm with 5HE-C14-TMA (at 256 mg/L) and incubated for 2 h at 37 °C. Plasma samples were collected by centrifugation (1000 g) and assayed for human cytokines using a Bio-Plex 200 (Bio-Rad). A standard curve was employed to maximize sensitivity for samples containing low cytokine levels. At least three different donor blood samples (with three replicates for each) were used.

[12] = 256 mg/L for 2 h, sub-bactericidal dose

Q: For `CCCCCCCCCCCCCC(=O)C1=C(O)N[C@@H](CCO)C1=O` [5HE-C14-TMA, 5-hydroxyethyl-3-tetradecanoyltetramic acid], which “Membrane depolarization (DiSC3(5) fluorescence)” value [1] is on record?
A: increase in fluorescence, indicative of membrane depolarization

Q: What about the Kd [2] of the same compound?
A: 4 µM

Q: And the IC50 [3]?
A: 14 µM

Q: What about the MIC [4] of the same compound?
A: 6.25 µM and 2 µg/mL

Q: What about the Reduction of viability ([5]; USA300, over 30 min) of the same compound?
A: 3 logs

Q: What about the “Bactericidal activity (CLSI: at least 3-log reduction)” value ([5]; planktonic USA300) of the same compound?
A: bactericidal

Q: And the Biofilm killing [6]?
A: > 50%

Q: And the Iron chelation [7]?
A: is an iron chelator

Q: What about the CC50 [8] of the same compound?
A: 246 µM and 87 µg/mL

Q: And the MIC [9]?
A: 6.25 µM and 2 µg/mL

Q: What about the MIC [10] of the same compound?
A: 2 µg/mL (≈ 5.66 µM)

Q: And the MIC ([10]; Staphylococcus aureus)?
A: 2 to 4 µg/mL (≈ 5.66 to 11.3 µM)

Q: And the “IL-8 level in blood exposed to USA300 biofilm with compound” value [11, 12]?
A: substantial reductions

Q: And the “TNF-α level in blood exposed to USA300 biofilm with compound” value [11, 12]?
A: substantial reductions

Q: And the “Cytokine levels in whole human blood, agent only” value ([11]; 256 mg/L, 2 h, no biofilm)?
A: no increase in cytokine levels

Q: And the “IL-8 and TNF-α levels in response to USA300 agr mutant biofilm with compound” value ([11]; same dose (256 mg/L), agr mutant biofilm)?
A: no further effect

— article PMC5400099, “5-Hydroxyethyl-3-tetradecanoyltetramic acid represents a novel treatment for intravascular catheter infections due to Staphylococcus aureus” (Journal of Antimicrobial Chemotherapy, 2016)
